Data reported in patent publication US6774139B1, “Dual function microbicides” (Parker Hughes Institute, priority 2000, dated 2004).
Like-named read-outs stand apart in the source and are kept apart here.

Experiments:
[1] = tested on: normal human ectocervical epithelial cells; test: MTT cell viability assay, ectocervical epithelial cells; assay type: cell-based; details: read-out: IC50[MTT] ectocervical epithelial cells
Experimental: (§1) Briefly, exponential growing vaginal, ectocervical, and endocervical epithelial cells were seeded into 96-well plates at a density of 2×10^4 cells/well and incubated for 24 h at 37° C. prior to drug exposure. On the day of treatment, culture medium was aspirated from the wells and replaced with fresh medium containing serial two-fold drug concentrations ranging from 7.8 μM to 1000 μM. N-9 (IGEPAL CO-630; Rhone Poulenc, Cranbury, N.J.) was diluted in PBS. Triplicate wells were used for each treatment. Culture plates were then incubated for 3 hours before adding 10 μl of MTT solution (5 mg/ml in PBS) to each well. Wells containing only medium and MTT were used as control for each plate. The tetrazolium/formazan reaction was allowed to proceed for 4 hours at 37° C., and then 100 μl of the solubilization buffer (10% sodium dodecyl sulfate in 0.1% HCl) was added to all wells and mixed thoroughly to dissolve the dark blue formazan crystals. After an overnight incubation at 37° C., the OD at 540 nm were measured using a 96-well multiscanner autoreader with the solubilization buffer serving as blank. To translate the OD540 values into the number of live cells in each well, the OD540 values were compared to those of standard OD540-versus-cell number curves generated for each cell line. The percent survival was calculated using the formula: % survival=Live cell number [test]/Live cell number [control]×100. The results were expressed as mean IC50 values for three independent experiments. The IC50 [MTT] was defined as the concentration required for 50% reduction in cell survival.
(§2) Cell viability was measured by the MTT assay.

[2] = tested on: normal human vaginal epithelial cells; test: MTT cell viability assay, vaginal epithelial cells; assay type: cell-based; details: read-out: IC50[MTT] vaginal epithelial cells
Experimental: as §1, §2

[3] = tested on: normal human endocervical epithelial cells; test: MTT cell viability assay, endocervical epithelial cells; assay type: cell-based; details: read-out: IC50[MTT] endocervical epithelial cells
Experimental: as §1, §2

human sperm = test: sperm immobilizing activity (SIA) by CASA; assay type: cell-based; details: for EC50: read-out: EC50 [SIA]; for effective 100% inhibitory concentration (EC100), sperm motility: FIG. 1, CASA
Experimental: To evaluate the effect of each of the 31 thiourea compounds on human sperm motility and kinematics, highly motile fractions of sperm were prepared from donor semen (n=8) by discontinuous (90-45%) gradient centrifugation using Enhance Plus medium (Conception Technologies, San Diego, Calif.) and the “swim-up” method. The swim-up method was used after density gradient centrifugation, washing, and resuspension of sperm in BWW-3% BSA. Pooled swim-up fraction was washed once prior to spermicidal assay.
All donor semen specimens were obtained after informed consent and in compliance with the guidelines of the Parker Hughes Institute Institutional Review Board. […] The stock solutions of thioureas were prepared in DMSO (100 mM) and diluted in assay medium to yield the desired concentrations (up to 1000 μM). Corresponding volume of DMSO (either 0.5% or 1%) was added to control tubes. After 3 hours of incubation at 37° C., the percentage of motile sperm was evaluated by CASA [53, 62-64]. The percent motilities were compared with sham-treated control suspensions of motile sperm.
For CASA, 5-μl of each sperm suspension was loaded into a 20-μm Microcell slide (Conception Technologies) in a counting chamber at 37° C. At least 5-8 fields per slide were scanned for analysis using a Hamilton Thome Integrated Visual Optical System (IVOS), version 10 instrument (Hamilton Thome Research Inc., Danvers, Mass.). Each field was recorded for 30 seconds. The computer calibrations were set at 30 frames at a frame rate of 30/second.
The sperm kinematics parameters that were determined included numbers of motile (MOT) and progressively (PRG) motile sperm; curvilinear velocity (VCL; a measure of the total distance traveled by a given sperm during the acquisition divided by the time elapsed); average path velocity (VAP; the spatially averaged path that eliminates the wobble of the sperm head), straight line velocity (VSL; the straight-line distance from beginning to end of track divided by time taken), beat cross frequency (BCF; frequency of sperm head crossing sperm average path), the amplitude of lateral head displacement (ALH; the mean width of sperm head oscillation), and the derivatives, straightness (STR=VSL/VAP×100) and linearity (LIN=VSL/VCL×100; departure of sperm track from a straight line). Data from each individual cell track were recorded and analyzed. At least 200 motile sperm were analyzed for each aliquot sampled.

HIV-1 strain HTLVIIIB = test: p24 antigen production in HIV-1 infected PBMCs; assay type: cell-based; details: Human immunodeficiency virus 1, PBMC
Experimental: The HTLVIIIB strain of HIV-1 was propagated in CCRF-CEM cells and the virus stocks obtained from cell-free supernatants of infected cells were titered using MT-2 cells. Cell-free supernatants were harvested and frozen in 1 ml aliquots at −70° C.
Stock solutions (10 mM) of thiourea compounds were prepared in dimethylsulfoxide (DMSO). Cells were cultured for 7 days in 96-well microtiter plates (100 μl/well; 2×10^6 cells/ml, triplicate wells) in the presence and absence of various concentrations (0.001 μM to 100 μM) of the thioureas. Cells from non-infected controls were handled in the same way except the virus was omitted from the preparation. Aliquots of culture supernatants were removed from the wells on the 7th day after infection for p24 antigen as previously described. The p24 enzyme immunoassay was the unmodified kinetic assay available commercially (Coulter Corporation/Immunotech, Inc., Westbrook, Me.). The assay uses a murine monoclonal antibody (mAb) to the HIV core protein coated onto microwell strips to which the antigen present in the test culture supernatant sample binds. The plates were read on a ELISA reader (Molecular Devices, Sunnyvale, Calif.) at 650 nm and p24 levels, expressed as ng/ml, were calculated against known standards supplied by Coulter/Imrunotech, Inc. Percent viral inhibition was calculated by comparing the p24 values for the test substance-treated infected cells with the p24 values for untreated infected cells (i.e., virus controls). […]

[4] = partition coefficient n-octanol/water (Pa); assay type: physicochemical; details: UV absorption
Experimental: Partition of the test compounds between n-octanol and water as a measure of their lipophilicity was determined by taking the UV absorption of each compound in n-octanol, water-saturated n- octanol (1:1), and n-octanol-saturated water (1:1). The UV absorption maxima were determined by selecting a wavelength with the maximum absorption peak in the water-saturated octanol layer and the corresponding peak in the octanol-saturated water. Three absorption spectra were obtained for each compound. The partion coefficient (Pa) was calculated as the ratio of the compound concentration present in the lipid phase to the compound concentration present in the aqueous phase.

[5] = target: T1, purified recombinant HIV-1 RT (Human immunodeficiency virus type 1 group M subtype B, UniProt P03366); test: cell-free Quan-T-RT RT inhibition assay (scintillation proximity); assay type: biochemical; details: IC50 [rRT], purified recombinant HIV-1 RT, cell-free
T1 construct: purified recombinant HIV-1 RT
Experimental: Each of the thirty one thiourea compounds was tested for RT inhibitory activity against purified recombinant HIV-1 RT using the cell-free Quan-T-RT system (Amersham Corp., Arlington Heights, Ill.), which utilizes the scintillation proximity assay principle.

[6] = HIV-1 HTLVIIIB infected human PBMC, p24 antigen on 7th day, read-out: IC50 [p24]
[7] = motile human sperm, 3 hours at 37° C., CASA
[8] = HIV-1 HTLVIIIB infected human PBMC, values in nM, read-out: IC50[p24]

Structure (SMILES) | IC50 ([1]; 3 h) [µM] | IC50 ([2]; 3 h) [µM] | IC50 ([3]; 3 h) [µM] | EC50 (human sperm; Homo sapiens, Sperm, 3 h) [µM] | IC50 (HIV-1 strain HTLVIIIB; [6]) [nM] | IC50 ([1]; 3 h exposure, MTT) [µM] | IC50 ([2]; 3 h exposure, MTT) [µM] | Pa, Partition coefficient [4] | IC50 ([3]; 3 h exposure, MTT) [µM] | EC50 (human sperm; [7]) [µM] | IC50 [5] [µM] | IC50 (HIV-1 strain HTLVIIIB; [8]) [nM] | IC50 (HIV-1 strain HTLVIIIB; read-out: IC50 [p24]) [nM] | IC50 (HIV-1 strain HTLVIIIB; read-out: IC50[p24]) [nM] | effective 100% inhibitory concentration (EC100), sperm motility (human sperm) [mM]
CCCCCCCCCc1ccc(OCCOCCOCCOCCOCCOCCOCCOCCOCCO)cc1 [Compound N-9, nonoxynol-9, reference compound] | 58 | 64 | 32 | 81 |  |  |  |  |  |  |  |  |  |  | 
S=C(NCCc1ccccn1)Nc1ccccn1 [HI 207] |  |  |  |  | 270 | > 1000 | > 1000 | 2.32 | > 1000 | 279 | 0.39 |  |  |  | 
Fc1ccccc1CCNC(=S)Nc1ccc(Br)cn1 [HI 240] |  |  |  |  | < 1 | > 1000 | > 1000 | 1.20 | > 1000 | 147 | 0.6 | < 1 |  |  | 
S=C(NCCc1ccccc1Cl)Nc1ccc(Br)cn1 [HI 253] |  |  |  |  | < 1 | > 1000 | > 1000 | 1.04 | > 1000 | 70 | 0.7 | < 1 |  |  | 
S=C(NCCC1=CCCCC1)Nc1ccc(Br)cn1 [HI 346] |  |  |  |  |  | 765 ± 400 | > 1000 | 8.6 | 580 ± 48 | 42 | 0.6 |  | 3 | 3 | 0.25
S=C(NCCC1=CCCCC1)Nc1ccc(Cl)cn1 [HI 445] |  |  |  |  |  | 692 ± 139 | 578 ± 25 | 6.3 | 185 ± 21 | 57 |  |  | 3 | 3 | 1
